Values after ≈ are worked out from the molar mass of the structure shown.
Legend:
physchem = conditions: phosphate buffered solution
[1] = Moisture content according to hydration number; assay type: physicochemical; conditions: actual moisture content, methanesulfonate hydrates
Description: The moisture content of the hydrate varies with the hydration number (n) of the hydrated molecule. Since the molecular weight of 7-(4-amino-methyl-3-methyloxylminopyrrolidin-1-yl)-1-cyclopropyl-6-fluoro- 4-oxo-1,4-dihydro-1,8-naphthyridine-3-carboxylic acid methanesulfonate is 485.5, the moisture content of the hydrate for n equal to 1, 1.5, 2, 2.5, 3, 3.5 or 4 is calculated to be 3.6%, […], 6.9%, 8.5%, 10.0%, 11.5% or 12.9%, respectively. However, the actual moisture content may differ from the calculated moisture content depending on differences in recrystallization conditions, drying conditions, etc.

[2] = Chemical stability under heating
Description: The anhydride and each of the hydrates was introduced into a glass vial and maintained at 70° C.

CON=C1CN(c2nc3c(cc2F)c(=O)c(C(=O)O)cn3C2CC2)CC1CN (stereo not drawn) [Tartarate]
solubility (physchem; pH 2): 15.4 mg/mL (≈ 39.5 mM) | solubility (physchem; pH 7): 6.7 mg/mL (≈ 17.2 mM)

CON=C1CN(c2nc3c(cc2F)c(=O)c(C(=O)O)cn3C2CC2)CC1CN (stereo not drawn) [1 hydrate, 7-(4-aminomethyl-3-methyloxylminopyrrolidin-1-yl)-1-cyclopropyl-6-fluoro-4-oxo-1,4-dihydro-1,8-naphthyridine-3-carboxylic acid methanesulfonate]
Moisture Content [1]: 2-4%

CON=C1CN(c2nc3c(cc2F)c(=O)c(C(=O)O)cn3C2CC2)CC1CN (stereo not drawn) [Anhydrate, 7-(4-aminomethyl-3-methyloxyiminopyrrolidin-1-yl)-1-cyclopropyl-6-fluoro-4-oxo-1,4-dihydro-1,8-naphthyridine-3-carboxylic acid methanesulfonate anhydride]
thermal stability [2]: 99% | remaining at 336 h ([2]; thermal stability, 2 weeks, 70° C.): 97% | remaining at 672 h ([2]; thermal stability, 4 weeks, 70° C.): 95%

CON=C1CN(c2nc3c(cc2F)c(=O)c(C(=O)O)cn3C2CC2)CC1CN (stereo not drawn) [2 hydrate, 7-(4-aminomethyl-3-methyloxylminopyrrolidin-1-yl)-1-cyclopropyl-6-fluoro-4-oxo-1,4-dihydro-1,8-naphthyridine-3-carboxylic acid methanesulfonate]
Moisture Content [1]: 6-8%

CON=C1CN(c2nc3c(cc2F)c(=O)c(C(=O)O)cn3C2CC2)CC1CN (stereo not drawn) [3.5 hydrate, 7-(4-aminomethyl-3-methyloxylminopyrrolidin-1-yl)-1-cyclopropyl-6-fluoro-4-oxo-1,4-dihydro-1,8-naphthyridine-3-carboxylic acid methanesulfonate]
Moisture Content [1]: 11-12%

CON=C1CN(c2nc3c(cc2F)c(=O)c(C(=O)O)cn3C2CC2)CC1CN (stereo not drawn) [2.5 hydrate, 7-(4-aminomethyl-3-methyloxylminopyrrolidin-1-yl)-1-cyclopropyl-6-fluoro-4-oxo-1,4-dihydro-1,8-naphthyridine-3-carboxylic acid methanesulfonate]
Moisture Content [1]: 8-9%

Source: patent publication US5776944A, “7-(4-aminomethyl-3-methyloxyiminopyrroplidin-1-yl)-1-cyclopropyl-6-flu oro-4-oxo-1,4-dihydro-1,8-naphthyridine-3-carboxylic acid and the process for the preparation thereof” (LG Chemical Ltd., priority 1994, dated 1998)
